Data published in patent US20190145953A1, “METHODS AND MATERIALS FOR ASSESSING INTESTINAL PERMEABILITY” (Mayo Foundation for Medical Education and Research, priority 2016, published 2019).

Columns and labels:
[1] = Cumulative urinary excretion of oral sugars by HPLC-MS in IBS-C patients and healthy volunteers (Example 3); format: in vivo, human
Method: The following was performed to determine duodenal and colonic barrier function and endotoxin activity in females with IBS-C in comparison to healthy. 16 IBS-C (Rome III) patients and 13 matched healthy volunteers (females) were given oral lactulose, ^12C mannitol and ^13C mannitol measured cumulatively over 0-2 and 8-24 hours by HPLC-MS. 10 biopsies were obtained from duodenum and sigmoid colon. Mucosal transepithelial resistance (TER), FITC dextran (4 KDa), and E. coli K12 BioParticle flux were measured in Ussing chambers. Endotoxin activity (blood) was measured towards gram-negative bacterial lipopolysaccharide. Unpaired 2-sided t-tests were used for comparisons.

[2] = format: in vivo, human
Method: 24 healthy volunteers (12 females) aged 18-65 years are recruited. Those using NSAIDs, oral corticosteroids, artificial sweeteners (Splenda, aspartame), lactulose, mannitol, or medications affecting gastrointestinal transit are excluded. All 24 participants undergo a baseline urinary excretion assay using the three saccharides (100 mg ^13C mannitol, 100 mg ^12C mannitol, and 1000 mg lactulose) dissolved in 250 mL of water. 500 mL of water is administered 30 minutes after the sugars are ingested to aid in the production of urine. Participants are allowed regular amounts of water throughout the study, and no standardized meals are provided. Cumulative urine samples for 0-2 hours are collected while they are in the CRU and stored. Two containers are provided for the cumulative 2-8 hour collection and cumulative 8-24 hour collection. Participants are instructed to return these collections the following day. The collections are subjected to HPLC-MS for quantitative estimation of the sugars.
These participants receive 75 mg of Indomethacin orally 8 hour and 30 minutes prior to a second urinary excretion assay using the same three sugars. Finally, these participants undergo a third assay after 4 weeks from the end of the second assay in the absence of any indomethacin or other NSAIDs or perturbations. All three assays are done using the same protocol and urinary collections. Additionally, these participants undergo an upper endoscopy with duodenal biopsies at baseline and after Indomethacin challenge. The ^13C mannitol-assay based urinary excretion findings are correlated with histology findings on light microscopy and with ex vivo mucosal barrier function/permeability. For this, tw freshly obtained biopsies are mounted in 4 mL Ussing chambers (Physiological Instruments, California, USA) exposing a 0.03 cm^2 area. Transepithelial resistance is measured using Ag/AgCl electrodes with agar-salt bridges and current delivered with platinum electrodes. Macromolecular flux across biopsies are studied using FITC Dextran (4 kDa, Molecular Probes, New York). At 30-minute intervals for a total of 3 hours, basal compartment fluorescence are analyzed.
At each visit, baseline excretion of ^12C mannitol was higher than the ^13C mannitol (p<0.0001) with 5 of 73 subjects excreting >10 mg of ^12C mannitol prior to test dose administration. At visit 1, one subject excreted 62 mg of ^12C mannitol, which dropped to 28 mg after test dose administration.
This recovered completely at visit 3. Both low and high dose Indomethacin had similar effects. […] It is possible that intestinal microflora can influence the L:M based excretion assay for intestinal permeability. To test this, seven patients underwent a fourth testing following bowel prep with MoviPrep. […] This could reflect increased transit after the bowel prep resulting in less contact time between the sugar and the absorptive surface area.

[3] = human, in vivo
Method: The following was performed to determine if administration of ^13C-mannitol can be used to measure intestinal permeability. Ten healthy volunteers (five females) received oral sugars after 8 hours of fasting. Those volunteers using tobacco, NSAIDs, oral corticosteroids, sweeteners, lactulose, mannitol, or medications affecting gastrointestinal transit were excluded. Three saccharides (100 mg of ^13C-mannitol, 100 mg of ^12C-mannitol (regular mannitol), and 1000 mg of ^12C-lactulose (regular lactulose)) dissolved in 250 mL of water were administered. 0-2 hour cumulative mannitol and 8-24 hour cumulative lactulose or mannitol excretion were measured to assess small intestinal and colonic permeability, respectively. After baseline urine collection, collections were pooled for 0-2 hours, 2-8 hours, and 8-24 hours following administration of test sugars. High performance liquid chromatography-tandem mass spectrometry was performed to determine urinary sugar concentrations. Cumulative excretions and lactulose:mannitol (L:M) ratios (ratio of fractional excretion) were calculated. Mann-Whitney test was used for statistical analysis.

[4] = test system: colonic bacteria; settings: in vivo, po; cited from earlier work
[5] = human, in vivo; remark: listed apart in the source
Method: The following was performed to evaluate safety and effectiveness of oral nutritional therapy with serum-derived bovine immunoglobulin (SBI) on symptoms, epithelial barrier function, and mucosal expression of pivotal genes in small intestinal mucosa (SI) in patients with IBS-D. This open-label pilot study evaluated effects of SBI, 5.0 g twice daily for 8 weeks, in 15 patients with IBS-D (Rome III) on symptoms, tryptophan metabolism (kynurenine to tryptophan ratio), intestinal permeability [measured by two sugars (^13C-mannitol and lactulose) urine excretion: 0-2 hours (SI) and 2-8 hours (SI and colon)] and distal duodenal mucosal mRNA expression of pivotal genes including tight junction, secretory mechanisms, tissue repair proteins and chemokines. Bowel function and abdominal pain (worst and average) were evaluated using a daily diary including the Bristol Stool Form Scale, and bile acid homeostasis by fasting serum FGF-19 and 7αC4. Statistical analysis was based on ITT principles using paired tests (comparing baseline with results of therapy over 8 weeks or in final 2 weeks) and included imputation for missing data for one patient.

[6] = Indomethacin challenge, p=0.004

OC[C@H]1O[C@@H](O[C@@H]2[C@@H](CO)OC(O)(CO)[C@H]2O)[C@H](O)[C@@H](O)[C@H]1O (mixture of isomers) [lactulose]
0-2 hr cumulative urinary excretion (mg), mean (SEM) ([1]; Healthy Volunteers (n=11)): 0.99(0.12) mg
8-24 hr cumulative urinary excretion (mg), mean (SEM) ([1]; Healthy Volunteers (n=11)): 0.72(0.31) mg
0-2 hr cumulative urinary excretion (mg), mean (SEM) ([1]; IBS-C (n=16)): 1.12(0.19) mg
8-24 hr cumulative urinary excretion (mg), mean (SEM) ([1]; IBS-C (n=16)): 1.06(0.55) mg

COc1ccc2c(c1)c(CC(=O)O)c(C)n2C(=O)c1ccc(Cl)cc1 [Indomethacin]
0-2h lactulose excretion compared to baseline (visit 1) ([2]; Indomethacin challenge, p<0.0001): increased
2-8h lactulose excretion compared to baseline (visit 1) [2, 6]: increased
8-24h lactulose excretion compared to baseline (visit 1) [2, 6]: increased
12C or 13C mannitol excretion with Indomethacin treatment ([2]; either excretion time-point): did not increase

OC[C@@H](O)[C@@H](O)[C@H](O)[C@H](O)CO [^12C-mannitol]
L:M ratio: Mean (SEM), 0-2 hours [3]: 0.006
L:M ratio: Mean (SEM), 2-8 hours [3]: 0.009
L:M ratio: Mean (SEM), 8-24 hours [3]: 0.002
Participants with disproportionately high baseline excretion [3]: Three of the ten
Baseline excretion ([2]; in vivo): higher
Change of excretion in the 0-2 hr interval compared with baseline ([2]; in vivo): four subjects exhibited no significant increase
Cumulative (0-24h) mean recovery, comparison 12C vs 13C mannitol ([2]; in vivo): significantly higher
Excretion of one subject after test dose administration ([2]; in vivo): 28 mg
Excretion of one subject at baseline ([2]; in vivo): 62 mg
Subjects excreting >10 mg prior to test dose administration ([2]; in vivo): 5 of 73

OC[C@@H](O)[C@@H](O)[C@H](O)[C@H](O)CO [mannitol]
Fraction of orally ingested mannitol metabolized by colonic bacteria [4]: about 75%

^13C-mannitol
L:M ratio: Mean (SEM), 0-2 hours [3]: 0.007
L:M ratio: Mean (SEM), 2-8 hours [3]: 0.01
L:M ratio: Mean (SEM), 8-24 hours [3]: 0.01
Mean lower baseline contamination vs 12C mannitol [3]: 20 fold
Participants with disproportionately high baseline excretion [3]: none
Baseline excretion ([2]; in vivo): nearly undetectable
Change of excretion in the 0-2 hr interval compared with baseline ([2]; in vivo): increased in all cases
Excretion at baseline in IBS-D patients vs 8 healthy controls [5]: did not differ
